Experimental data published in patent publication US20240277713A1 (Kadmon Corporation, LLC, priority 2022, published 2024).
Counter-ions that a name gives are not always drawn.

Legend:
Solubility = assay type: physicochemical
Protocol: The tablet film consists of polyvinyl alcohol, polyethylene glycol, talc, titanium dioxide and yellow iron oxide. Each 200 mg tablet is a pale-yellow film-coated oblong tablet debossed with “KDM” on one side and “200” on the other side. Tablets are stored at room temperature, 20° C. to 25° C. (68° F. to 77° F.); excursions permitted from 15° C. and 30° C. (59° F. to 86° F.).

[1] = Toxicokinetics in pregnant Sprague-Dawley rats (Example 1); assay type: in vivo, rat; conditions: belumosudil 25 mg base/kg/day oral, GD 17
[2] = Toxicokinetics in pregnant New Zealand White rabbits (Example 2); assay type: in vivo, rabbit; conditions: GD 18
Protocol: The study was conducted in two phases: Phase A was a dose range finding tolerance study with non-pregnant rabbits, and Phase B was the pilot developmental toxicity study.
All fetuses were given the appropriate external examination.

[3] = Toxicokinetic evaluation in pregnant rats (Example 3); assay type: in vivo, rat
Description: Animals received in-life and postmorten evaluations.

[4] = Toxicokinetic evaluation in pregnant rabbits (Example 4); assay type: in vivo, rabbit
Protocol: The dose levels for the treated groups were 50, 125, 225, mg base/kg/day at a dose volume of 10 mL/kg. The control group received the vehicle in the same manner as the treated groups. […] Individual doses were based on the most recent body weights.
Observations of the animals included clinical signs, body weights, food consumption, and anatomical pathology including a uterine examination. […] All fetuses were given an external, visceral, and skeletal examination.

[5] = Toxicokinetic analysis in rat plasma (Example 5); assay type: in vivo
Protocol: TK animals were dosed for 70 and 14 days for the males and females, respectively. Dosing of TK males and females was initiated simultaneously, continuing to euthanasia. Refrigerated daily aliquots of dosing formulations were brought to room temperature while continuously stirring for at least 30 minutes prior to dosing.

patients with cGVHD = conditions: cited from earlier work
[6] = belumosudil 50 mg base/kg/day oral
[7] = belumosudil 250 mg base/kg/day oral
[8] = GD 6, belumosudil 15 mg base/kg oral
[9] = GD 6, belumosudil 50 mg base/kg oral
[10] = GD 6, belumosudil 150 mg base/kg oral
[11] = GD 17, belumosudil 15 mg base/kg oral
[12] = GD 17, belumosudil 50 mg base/kg oral
[13] = GD 17, belumosudil 150 mg base/kg oral
[14] = GD 6, belumosudil 125 mg base/kg oral
[15] = GD 6, belumosudil 225 mg base/kg oral
[16] = GD 18, belumosudil 50 mg base/kg oral
[17] = GD 18, belumosudil 125 mg base/kg oral
[18] = GD 18, belumosudil 225 mg base/kg oral
[19] = Day 1, belumosudil 50 mg base/kg, F
[20] = Day 1, belumosudil 50 mg base/kg, M
[21] = Day 1, belumosudil 150 mg base/kg, F
[22] = Day 1, belumosudil 150 mg base/kg, M
[23] = Day 1, belumosudil 275 mg base/kg, F
[24] = Day 1, belumosudil 275 mg base/kg, M
[25] = Day 14, belumosudil 50 mg base/kg, F
[26] = Day 14, belumosudil 150 mg base/kg, F
[27] = Day 14, belumosudil 275 mg base/kg, F
[28] = Day 70, belumosudil 50 mg base/kg, M
[29] = Day 70, belumosudil 150 mg base/kg, M
[30] = Day 70, belumosudil 275 mg base/kg, M

## CC(C)NC(=O)COc1cccc(-c2nc(Nc3ccc4[nH]ncc4c3)c3ccccc3n2)c1 [Belumosudil mesylate, 2-{3-[4-(1H-indazol-5-ylamino)-2-quinazolinyl]phenoxy}-N-(propan-2-yl) acetamide methanesulfonate (1:1)]
Solubility
  solubility in DMSO: soluble in DMSO
  solubility in methanol and DMF: slightly soluble in methanol and DMF
  solubility in water: practically insoluble in water

## O=C(O)COc1cccc(-c2nc(Nc3ccc4[nH]ncc4c3)c3ccccc3n2)c1 [KD025m2]
[1]
  maternal AUC0-24: 1480 ng·h/mL
  maternal Cmax: 127 ng/mL
[2]; [6]
  maternal AUC0-24: 2990 ng·h/mL
  maternal Cmax: 1090 ng/mL
[2]; [7]
  maternal AUC0-24: 19700 ng·h/mL
  maternal Cmax: 3080 ng/mL
[3]; [8]
  Mean AUC0-24 in plasma of pregnant rats: 515 ng·h/mL
  Mean Cmax in plasma of pregnant rats: 76.2 ng/mL
[3]; [9]
  Mean AUC0-24 in plasma of pregnant rats: 3050 ng·h/mL
  Mean Cmax in plasma of pregnant rats: 191 ng/mL
[3]; [10]
  Mean AUC0-24 in plasma of pregnant rats: 10500 ng·h/mL
  Mean Cmax in plasma of pregnant rats: 519 ng/mL
[3]; [11]
  Mean AUC0-24 in plasma of pregnant rats: 572 ng·h/mL
  Mean Cmax in plasma of pregnant rats: 55.6 ng/mL
[3]; [12]
  Mean AUC0-24 in plasma of pregnant rats: 3580 ng·h/mL
  Mean Cmax in plasma of pregnant rats: 350 ng/mL
[3]; [13]
  Mean AUC0-24 in plasma of pregnant rats: 11100 ng·h/mL
  Mean Cmax in plasma of pregnant rats: 972 ng/mL
[3]; pregnant rats
  accumulation after multiple dosing of belumosudil: No apparent accumulation
[4]; [9]
  Mean AUC0-24 in plasma of pregnant rabbits: 4180 ng·h/mL
  Mean Cmax in plasma of pregnant rabbits: 1170 ng/mL
[4]; [14]
  Mean AUC0-24 in plasma of pregnant rabbits: 13600 ng·h/mL
  Mean Cmax in plasma of pregnant rabbits: 2180 ng/mL
[4]; [15]
  Mean AUC0-24 in plasma of pregnant rabbits: 42400 ng·h/mL
  Mean Cmax in plasma of pregnant rabbits: 3190 ng/mL
[4]; [16]
  Mean AUC0-24 in plasma of pregnant rabbits: 2470 ng·h/mL
  Mean Cmax in plasma of pregnant rabbits: 1120 ng/mL
[4]; [17]
  Mean AUC0-24 in plasma of pregnant rabbits: 16700 ng·h/mL
  Mean Cmax in plasma of pregnant rabbits: 3610 ng/mL
[4]; [18]
  Mean AUC0-24 in plasma of pregnant rabbits: 41500 ng·h/mL
  Mean Cmax in plasma of pregnant rabbits: 4620 ng/mL
[4]; pregnant rabbits
  accumulation after multiple dosing of belumosudil: no apparent accumulation
[5]; [19]
  AUC0-24 in rat plasma: 2110 ng·h/mL
  Cmax in rat plasma: 135 ng/mL
[5]; [20]
  AUC0-24 in rat plasma: 5440 ng·h/mL
  Cmax in rat plasma: 501 ng/mL
[5]; [21]
  AUC0-24 in rat plasma: 6860 ng·h/mL
  Cmax in rat plasma: 398 ng/mL
[5]; [22]
  AUC0-24 in rat plasma: 13600 ng·h/mL
  Cmax in rat plasma: 686 ng/mL
[5]; [23]
  AUC0-24 in rat plasma: 11500 ng·h/mL
  Cmax in rat plasma: 925 ng/mL
[5]; [24]
  AUC0-24 in rat plasma: 21500 ng·h/mL
  Cmax in rat plasma: 1680 ng/mL
[5]; [25]
  AR (Accumulation Ratio) AUC0-24: 0.657
  AUC0-24 in rat plasma: 1390 ng·h/mL
  Cmax in rat plasma: 125 ng/mL
[5]; [26]
  AR (Accumulation Ratio) AUC0-24: 1.04
  AUC0-24 in rat plasma: 7110 ng·h/mL
  Cmax in rat plasma: 523 ng/mL
[5]; [27]
  AR (Accumulation Ratio) AUC0-24: 1.80
  AUC0-24 in rat plasma: 20700 ng·h/mL
  Cmax in rat plasma: 1480 ng/mL
[5]; [28]
  AR (Accumulation Ratio) AUC0-24: 0.750
  AUC0-24 in rat plasma: 4080 ng·h/mL
  Cmax in rat plasma: 410 ng/mL
[5]; [29]
  AR (Accumulation Ratio) AUC0-24: 0.701
  AUC0-24 in rat plasma: 9520 ng·h/mL
  Cmax in rat plasma: 1070 ng/mL
[5]; [30]
  AR (Accumulation Ratio) AUC0-24: 1.35
  AUC0-24 in rat plasma: 28900 ng·h/mL
  Cmax in rat plasma: 1900 ng/mL
[5]; rats
  accumulation after multiple doses of belumosudil: less than 2 fold

## C=CC(=O)N1CCC[C@@H](n2nc(-c3ccc(Oc4ccccc4)cc3)c3c(N)ncnc32)C1 [ibrutinib]
Patients with cGVHD
  discontinuation rate because of TEAEs: 43%
